# Laboratory results as given in patent US12029728B2, “Small molecules with anti-protozoan activity” (New Mexico Tech University Research Park Corporation, priority 2018, dated 2024).
# Tested on: PBMC cells
# Assay: MTT toxicity assay on PBMC / monocyte-derived macrophages
# Type: cell-based, Human
# Settings: 5 (μM) MTF, 48 hours
# Protocol: Human peripheral blood mononuclear cells (PBMC) were plated onto polylysine-coated glass slides in 24-well plates and allowed to differentiate towards monocyte-derived macrophages (MDMs). Non-adherent cells were removed 48-hours post plating. Adherent monocytes were left to further differentiate for another 48 hours to MDMs. Following the completion of the differentiation period, MDMs were treated with vehicle control (DMSO), […], or 10 μM of Compound 1, Compound 3, Compound 4, Compound 6, Compound 7, Compound 8, Compound 9, Compound 10, or Compound 11 for 48 hours.
smiles,measurement,value
"CCCCCCCCCCCCCCCCOP(=O)([O-])OCC[N+](C)(C)C [MTF, miltefosine]",toxicity to PBMC cells (MTT),not toxic
